Data: ChEMBL document CHEMBL1212937, “Effect of synthetic peptides belonging to E2 envelope protein of GB virus C on human immunodeficiency virus type 1 infection” (J Med Chem, 2010)
Peptide text beside a SMILES is read from it.

Tests used:
[1] = (§1) Inhibition of HIV1 gp41-induced cell-cell fusion between viral envolop expressing human HeLa cells to CD4 receptor expressing TZM-bl cells; assay type: cell-based, Human immunodeficiency virus 1
HeLa = experiment: as §1; assay type: cell-based; conditions: Human immunodeficiency virus 1
[2] = test system: Human immunodeficiency virus 1; experiment: Antiviral activity against R5 tropic HIV1 HXB2 infected in human TZM-bl cells assessed as inhibition of virus-induced cytopathic effect; assay type: functional, organism-based; conditions: for IC50: Human immunodeficiency virus 1, HXB2, TZM-bl
[3] = test system: Human immunodeficiency virus 1; experiment: Antiviral activity against R5X4 tropic HIV1 69/7 infected in human TZM-bl cells assessed as inhibition of virus-induced cytopathic effect; assay type: functional, organism-based; conditions: for IC50: Human immunodeficiency virus 1, 69/7, TZM-bl
[4] = test system: Human immunodeficiency virus 1; experiment: Antiviral activity against R5 tropic HIV1 BAL infected in human TZM-bl cells assessed as inhibition of virus-induced cytopathic effect; assay type: functional, organism-based; conditions: for IC50: Human immunodeficiency virus 1, BAL
[5] = test system: Human immunodeficiency virus 1; experiment: Antiviral activity against R5 tropic HIV1 HXB2 infected in human PBMC cells assessed as concentration at which p24 antigen produced after 7 days by ELISA; assay type: functional
[6] = test system: Human immunodeficiency virus 1; experiment: Antiviral activity against R5 tropic HIV1 BAL infected in human PBMC cells assessed as concentration at which p24 antigen produced after 7 days by ELISA; assay type: functional
[7] = test system: Human immunodeficiency virus 1; experiment: Inhibition of HIV1 gp41 fusion peptide at compound to fusion peptide ratio of 5 by fluorimetry
[8] = Inhibition of HIV1 gp41 fusion by isothermal titration; parameters: species or system Human immunodeficiency virus 1
[9] = Inhibition of HIV1 gp41 fusion by surface plasmon resonance; parameters: species or system Human immunodeficiency virus 1

IC50 [1] [µM] | IC50 [2] [µM] | IC50 [3] [µM] | IC50 [4] [µM] | inhibition [7] [%] | Kd [8] [µM] | Kd [9] [µM] | IC50 (HeLa) [µM] | Compound | inhibition (HeLa) | inhibition [2] | inhibition [3] | inhibition [4] | Activity [5] [µM] | Activity [6] [µM]
370 | 46 | 71.4 | 194 |  |  |  |  | CC[C@H](C)[C@H](NC(=O)[C@H](C)NC(=O)[C@H](CCC(N)=O)NC(=O)[C@@H](CS)NC(=O)[C@H](Cc1ccccc1)NC(=O)[C@H](C)NC(=O)[C@@H]1CCCN1C(=O)[C@@H](N)CC(C)C)C(=O)NCC(=O)N[C@@H](Cc1c[nH]c2ccccc12)C(=O)NCC(=O)N[C@@H](CC(=O)O)C(=O)N1CCC[C@H]1C(=O)N[C@H](C(=O)N[C@H](C(=O)N[C@@H](Cc1cnc[nH]1)C(=O)N[C@@H](Cc1c[nH]c2ccccc12)C(=O)N[C@@H](CO)C(=O)O)[C@@H](C)O)[C@@H](C)CC | Dose-dependent effect | Dose-dependent effect | Dose-dependent effect | Dose-dependent effect | 15.6 | 15.6
530 |  |  |  | 56.3 |  |  |  | CC(C)C[C@H](NC(=O)[C@H](CC(=O)O)NC(=O)[C@H](CCCCN)NC(=O)[C@@H](NC(=O)[C@H](CC(C)C)NC(=O)[C@H](CCCCN)NC(=O)[C@@H]1CCCN1C(=O)CNC(=O)[C@H](C)NC(=O)CNC(=O)[C@H](CS)NC(=O)[C@H](CCCNC(=N)N)NC(=O)[C@H](Cc1cnc[nH]1)NC(=O)[C@H](Cc1ccccc1)NC(=O)[C@@H]1CCCN1C(=O)[C@H](Cc1ccccc1)NC(=O)[C@@H](N)CCCNC(=N)N)[C@H](C)O)C(=O)N[C@@H](CCC(=O)O)C(=O)O | Dose-dependent effect |  |  |  |  | 
429 | 39.9 | 24.1 | 463 |  |  |  |  | CC[C@H](C)[C@H](NC(=O)[C@H](CS)NC(=O)[C@@H](NC(=O)[C@H](C)NC(=O)[C@H](CS)NC(=O)[C@@H]1CCCN1C(=O)[C@@H](NC(=O)CNC(=O)[C@H](Cc1c[nH]c2ccccc12)NC(=O)[C@H](CCC(=O)O)NC(=O)[C@H](CO)NC(=O)[C@H](CC(C)C)NC(=O)[C@H](CCC(=O)O)NC(=O)[C@@H](NC(=O)[C@@H](NC(=O)[C@@H](NC(=O)[C@@H](N)CC(=O)O)[C@@H](C)O)C(C)C)C(C)C)C(C)C)[C@@H](C)O)C(=O)N[C@@H](CC(C)C)C(=O)O (H-DTVVELSEWGVPCATCIL-OH) | Dose-dependent effect | Dose-dependent effect | Dose-dependent effect | Dose-dependent effect | 7.8 | 31.2
440 | 162 | 209 | 484 | 52.9 | 33.3 | 25.2 |  | CC(C)C[C@H](NC(=O)[C@H](CC(C)C)NC(=O)[C@@H](NC(=O)[C@@H](NC(=O)[C@H](CC(N)=O)NC(=O)CNC(=O)[C@H](CCCNC(=N)N)NC(=O)[C@H](CC(=O)O)NC(=O)[C@H](Cc1c[nH]c2ccccc12)NC(=O)[C@@H](NC(=O)[C@H](CCCCN)NC(=O)[C@H](CCC(=O)O)NC(=O)CNC(=O)[C@@H](N)[C@@H](C)O)C(C)C)C(C)C)[C@@H](C)O)C(=O)N[C@@H](CS)C(=O)N[C@@H](CC(=O)O)C(=O)N[C@@H](CS)C(=O)N1CCC[C@H]1C(=O)O (H-TGEKVWDRGNVTLLCDCP-OH) | Dose-dependent effect | Dose-dependent effect | Dose-dependent effect | Dose-dependent effect | 31.2 | 62.5
331 | 58.6 | 20.1 | 140 |  |  |  |  | CC[C@H](C)[C@H](NC(=O)[C@H](CS)NC(=O)[C@@H](NC(=O)[C@H](C)NC(=O)[C@H](CS)NC(=O)[C@@H]1CCCN1C(=O)[C@@H](NC(=O)CNC(=O)[C@H](Cc1c[nH]c2ccccc12)NC(=O)[C@H](CCC(=O)O)NC(=O)[C@H](CO)NC(=O)[C@H](CC(C)C)NC(=O)[C@H](CCC(=O)O)NC(=O)[C@@H](N)C(C)C)C(C)C)[C@@H](C)O)C(=O)N[C@@H](CC(C)C)C(=O)N[C@@H](CC(=O)O)C(=O)N[C@@H](CCCNC(=N)N)C(=O)N[C@@H](CCCNC(=N)N)C(=O)O (H-VELSEWGVPCATCILDRR-OH) | Dose-dependent effect | Dose-dependent effect | Dose-dependent effect | Dose-dependent effect | 7.8 | 7.8
 | 0.175 |  | 0.136 |  |  |  |  | C[C@@H]1[C@H](O)[C@@H](C)/C=C/C=C/C=C/C=C/C=C/C=C/C=C/[C@H](O[C@@H]2O[C@H](C)[C@@H](O)[C@H](N)[C@@H]2O)C[C@@H]2O[C@](O)(C[C@@H](O)C[C@@H](O)[C@H](O)CC[C@@H](O)C[C@@H](O)CC(=O)O[C@H]1C)C[C@H](O)[C@H]2C(=O)O [AMPHOTERICIN B] |  |  |  |  |  | 
348 | 70.1 | 111 | 126 |  |  |  |  | H-FCQAIGWGDPITHWSHGQ-OH | Dose-dependent effect | Dose-dependent effect | Dose-dependent effect | Dose-dependent effect | 7.8 | 15.6
 |  |  |  | 17.9 | 20 | 17.6 |  | H-GRPDGFIHVQGHLQEVDA-OH |  |  |  |  |  | 
 |  |  |  |  |  |  | 304 | H-HGQNRWPLSCPQYVYGSV-OH | Dose-dependent effect |  |  |  |  | 
687 | 37.5 | 60.8 | 295 |  |  |  |  | H-LQEVDAGNFIPPPRWLLL-OH | Dose-dependent effect | Dose-dependent effect | Dose-dependent effect | Dose-dependent effect | 7.8 | 15.6
538 |  |  |  | 46 | 39.6 | 22.4 |  | H-LVRRRSELMGRRNPVCPG-OH | Dose-dependent effect |  |  |  |  | 
509 |  |  |  |  |  |  |  | H-PITHWSHGQNRWPLSCPQ-OH | Dose-dependent effect |  |  |  |  | 
141 | 48.8 | 43.7 | 506 | 59 | 63.6 | 58.6 |  | H-SDRDTVVELSEWGVPCAT-OH | Dose-dependent effect | Dose-dependent effect | Dose-dependent effect | Dose-dependent effect | 31.2 | 62.5
 | 237 | 119 | 411 |  |  |  |  | H-SWFASTGGRDSKIDVWSL-OH |  | Dose-dependent effect | Dose-dependent effect | Dose-dependent effect | 62.5 | 7.8

Compound | IC50 [1] [µM] | IC50 [2] [µM] | IC50 [3] [µM] | IC50 [4] [µM] | inhibition [7] [%] | Kd [8] [µM] | Kd [9] [µM] | IC50 (HeLa) [µM] | inhibition (HeLa) | inhibition [2] | inhibition [3] | inhibition [4] | Activity [5] [µM] | Activity [6] [µM]
H-WVNQLAVLGLPAVDAAVA-OH | 333 |  |  | 94.7 |  |  |  |  | Dose-dependent effect | Dose-dependent effect | Dose-dependent effect | Dose-dependent effect | 7.8 | 15.6
